# Measured values as given in patent US20200261391A1, “METHODS OF REDUCING THE RISK OF A CARDIOVASCULAR EVENT IN A STATIN-TREATED SUBJECT BY INCREASING SERUM AND PLASMA EPA AND DPA LEVELS” (Amarin Pharmaceuticals Ireland Limited, priority 2019, published 2020).
# System: patients with elevated triglyceride levels on statin therapy
# Assay: REDUCE-IT trial: safety (treatment-emergent adverse events, bleeding, atrial fibrillation/flutter)
# [1] = TEAE by preferred term, Safety population, N = 4089
# [2] = gastrointestinal TEAEs, Safety population, N = 4089
# [3] = serious bleeding TEAE by preferred term, N = 4089
# [4] = serious bleeding TEAE, Safety population, N = 4089
# Procedure: Specification of Variables and Procedures: Safety assessments included adverse events, clinical laboratory measurements (chemistry, hematology), 12-lead ECGs, vital signs (systolic and diastolic blood pressure, heart rate, respiratory rate, and body temperature), weight, waist circumference, and physical examinations as per Study Procedures in Table 1. […] All laboratory test results were evaluated by the investigator as to their clinical significance. Any observations at physical examinations or laboratory values considered by the investigator to be clinically significant were considered an adverse event.
# An adverse event can therefore be any unfavorable and/or unintended sign (including an abnormal laboratory finding), symptom, or disease temporally associated with the use of an investigational medication product, whether or not related to the investigational medication product. All adverse events, including observed or volunteered problems, complaints, or symptoms, were recorded on the appropriate CRF. Each adverse event was evaluated for duration, intensity, and causal relationship with the study medication or other factors.
# Serious Adverse Events: A serious adverse event (SAE) is defined as an adverse event that meets any of the following criteria: • Results in death; • Is life-threatening—The term “life-threatening” in the definition of “serious” refers to an event in which the patient was at risk of death at the time of the event. […] Important medical events that may not result in death, be life threatening, or require hospitalization were considered an SAE when, based upon appropriate medical judgment, they may have jeopardized the patient and may have required medical or surgical intervention to prevent one of the outcomes listed above.
# Adverse Events of Special Interest: Bleeding-related adverse events, glucose control (fasting blood glucose and HbA1c), and indicators of hepatic disorders (e.g., ALT or AST increases >3×ULN, total bilirubin increases of ≥2×ULN) were summarized separately and compared between treatment groups.
# Analysis of Safety: All analyses of safety were conducted on the safety population, which was defined as all randomized patients. The safety assessment was based on the frequency of adverse events, physical exams, vital signs and safety laboratory tests. AEs with new onset during the study between the initiation of study drug and 30 days after the last dose of study drug for each patient was considered treatment-emergent (TEAEs). This included any AE with onset prior to initiation of study drug and increased severity after the treatment initiation.
# This included overall incidence rates (regardless of severity and relationship to study drug), and incidence rates for moderate or severe adverse events. A summary of SAEs and adverse events leading to early discontinuation (for ≥30 days) were presented through data listings. Patients who restarted study drug were included in the summary of AEs leading to discontinuation. Safety laboratory tests and vital signs were summarized by post-treatment change from baseline for each of the parameters using descriptive statistics by treatment group. Those patients with significant laboratory abnormalities were identified in data listings. Additional safety parameters were summarized in data listings.
smiles,measurement,setting,value
"CC/C=C\C/C=C\C/C=C\C/C=C\C/C=C\CCCC(=O)OCC [icosapent ethyl, eicosapentaenoic acid ethyl ester]","Pneumonia, number of patients with serious treatment-emergent adverse event",N = 4089,105
same,"Pneumonia, patients with serious treatment-emergent adverse event",N = 4089,2.6%
same,"Serious TEAE Leading to Death, % of patients","Safety population, N = 4089",(2.3%)
same,"Serious TEAE Leading to Death, number of patients","Safety population, N = 4089",94
same,"Serious TEAE Leading to Withdrawal of Study Drug, % of patients","Safety population, N = 4089",(2.2%)
same,"Serious TEAE Leading to Withdrawal of Study Drug, number of patients","Safety population, N = 4089",88
same,"Serious TEAE, % of patients","Safety population, N = 4089",(30.6%)
same,"Serious TEAE, number of patients","Safety population, N = 4089",1252
same,"Subjects with at Least One TEAE, % of patients","Safety population, N = 4089",(81.8%)
same,"Subjects with at Least One TEAE, number of patients","Safety population, N = 4089",3343
same,"TEAE Leading to Withdrawal of Study Drug, % of patients","Safety population, N = 4089",(7.9%)
same,"TEAE Leading to Withdrawal of Study Drug, number of patients","Safety population, N = 4089",321
same,"Anemia, % of patients",[1],4.7%
same,"Anemia, number of patients",[1],191
same,"Angina pectoris, % of patients",[1],4.9%
same,"Angina pectoris, number of patients",[1],200
same,"Arthralgia, % of patients",[1],7.7%
same,"Arthralgia, number of patients",[1],313
same,"Atrial fibrillation, % of patients",[1],5.3%
same,"Atrial fibrillation, number of patients",[1],215
same,"Back pain, % of patients",[1],8.2%
same,"Back pain, number of patients",[1],335
same,"Bronchitis, % of patients",[1],7.5%
same,"Bronchitis, number of patients",[1],306
same,"Cataract, % of patients",[1],5.7%
same,"Cataract, number of patients",[1],233
same,"Chest pain, % of patients",[1],6.7%
same,"Chest pain, number of patients",[1],273
same,"Constipation, % of patients",[1],5.4%
same,"Constipation, number of patients",[1],221
same,"Cough, % of patients",[1],5.9%
same,"Cough, number of patients",[1],241
same,"Diarrhea, % of patients",[1],9.0%
same,"Diarrhea, number of patients",[1],367
same,"Dizziness, % of patients",[1],5.7%
same,"Dizziness, number of patients",[1],235
same,"Dyspnea, % of patients",[1],6.2%
same,"Dyspnea, number of patients",[1],254
same,"Fatigue, % of patients",[1],5.6%
same,"Fatigue, number of patients",[1],228
same,"Hypertension, % of patients",[1],7.8%
same,"Hypertension, number of patients",[1],320
same,"Influenza, % of patients",[1],6.4%
same,"Influenza, number of patients",[1],263
same,"Nasopharyngitis, % of patients",[1],7.7%
same,"Nasopharyngitis, number of patients",[1],314
same,"Osteoarthritis, % of patients",[1],5.9%
same,"Osteoarthritis, number of patients",[1],241
same,"Pain in extremity, % of patients",[1],5.7%
same,"Pain in extremity, number of patients",[1],235
same,"Peripheral edema, % of patients",[1],6.5%
same,"Peripheral edema, number of patients",[1],267
same,"Pneumonia, % of patients",[1],6.4%
same,"Pneumonia, number of patients",[1],263
same,"Upper respiratory tract infection, % of patients",[1],7.6%
same,"Upper respiratory tract infection, number of patients",[1],312
same,"Urinary tract infection, % of patients",[1],6.2%
same,"Urinary tract infection, number of patients",[1],253
same,"Gastroesophageal Reflux Disease, % of patients",[2],3.0%
same,"Gastroesophageal Reflux Disease, number of patients",[2],124
same,"Gastrointestinal disorders (primary system organ class), % of patients",[2],33.0%
same,"Gastrointestinal disorders (primary system organ class), number of patients",[2],1350
same,"Nausea, % of patients",[2],4.6%
same,"Nausea, number of patients",[2],190
same,"anemia, adverse event rate",in vivo,4.7%
same,"atrial fibrillation or flutter requiring hospitalization (adjudicated tertiary endpoint), rate",in vivo,3.1%
same,"atrial fibrillation, adverse event rate",in vivo,5.3%
same,"diarrhea, adverse event rate",in vivo,9%
same,"gastrointestinal adverse events, rate",in vivo,33.0%
same,"gastrointestinal bleeding (serious), rate",in vivo,1.5%
same,new or unexpected important adverse effects in the safety population,in vivo,no new or unexpected important adverse effects
same,overall adverse event rates compared with placebo,in vivo,similar
same,"peripheral edema, adverse event rate",in vivo,6.5%
same,"serious central nervous system bleeding, rate",in vivo,0.3%
same,tolerability,in vivo,well tolerated
same,"treatment-emergent serious adverse events for bleeding, rate",in vivo,2.7%
same,rates of adverse events or serious adverse events leading to withdrawal of study drug vs placebo,"in vivo, listed as AMR101",no significant differences
same,"Aortic Aneurysm Rupture, % of patients",[3],(0.0%)
same,"Aortic Aneurysm Rupture, number of patients",[3],1
same,"Brain Contusion, % of patients",[3],(0.0%)
same,"Brain Contusion, number of patients",[3],0
same,"Catheter Site Hemorrhage, % of patients",[3],(0.0%)
same,"Catheter Site Hemorrhage, number of patients",[3],0
same,"Cerebral Hemorrhage, % of patients",[3],(0.0%)
same,"Cerebral Hemorrhage, number of patients",[3],0
same,"Cystitis Hemorrhagic, % of patients",[3],(0.0%)
same,"Cystitis Hemorrhagic, number of patients",[3],2
same,"Diverticulitis Intestinal Hemorrhagic, % of patients",[3],(0.0%)
same,"Diverticulitis Intestinal Hemorrhagic, number of patients",[3],0
same,"Diverticulum Intestinal Hemorrhagic, % of patients",[3],(0.1%)
same,"Diverticulum Intestinal Hemorrhagic, number of patients",[3],3
same,"Duodenal Ulcer Hemorrhage, % of patients",[3],(0.0%)
same,"Duodenal Ulcer Hemorrhage, number of patients",[3],2
same,"Ecchymosis, % of patients",[3],(0.0%)
same,"Ecchymosis, number of patients",[3],1
same,"Epistaxis, % of patients",[3],(0.2%)
same,"Epistaxis, number of patients",[3],7
same,"Esophageal Hemorrhage, % of patients",[3],(0.0%)
same,"Esophageal Hemorrhage, number of patients",[3],0
same,"Extravasation Blood, % of patients",[3],(0.0%)
same,"Extravasation Blood, number of patients",[3],1
same,"Gastric Hemorrhage, % of patients",[3],(0.0%)
same,"Gastric Hemorrhage, number of patients",[3],1
same,"Gastric Ulcer Hemorrhage, % of patients",[3],(0.1%)
same,"Gastric Ulcer Hemorrhage, number of patients",[3],3
same,"Gastrointestinal Angiodysplasia Hemorrhagic, % of patients",[3],(0.0%)
same,"Gastrointestinal Angiodysplasia Hemorrhagic, number of patients",[3],1
same,"Gastrointestinal Hemorrhage, % of patients",[3],(0.6%)
same,"Gastrointestinal Hemorrhage, number of patients",[3],26
same,"Genital Hemorrhage, % of patients",[3],(0.0%)
same,"Genital Hemorrhage, number of patients",[3],1
same,"Hemarthrosis, % of patients",[3],(0.0%)
same,"Hemarthrosis, number of patients",[3],0
same,"Hematemesis, % of patients",[3],(0.1%)
same,"Hematemesis, number of patients",[3],3
same,"Hematochezia, % of patients",[3],(0.0%)
same,"Hematochezia, number of patients",[3],1
same,"Hematoma, % of patients",[3],(0.0%)
same,"Hematoma, number of patients",[3],1
same,"Hematuria, % of patients",[3],(0.2%)
same,"Hematuria, number of patients",[3],8
same,"Hemoptysis, % of patients",[3],(0.0%)
same,"Hemoptysis, number of patients",[3],1
same,"Hemorrhagic Anemia, % of patients",[3],(0.1%)
same,"Hemorrhagic Anemia, number of patients",[3],4
same,"Hemorrhagic Duodenitis, % of patients",[3],(0.0%)
same,"Hemorrhagic Duodenitis, number of patients",[3],0
same,"Hemorrhagic Transformation Stroke, % of patients",[3],(0.0%)
same,"Hemorrhagic Transformation Stroke, number of patients",[3],1
same,"Hemorrhoidal Hemorrhage, % of patients",[3],(0.1%)
same,"Hemorrhoidal Hemorrhage, number of patients",[3],3
same,"Hemothorax, % of patients",[3],(0.0%)
same,"Hemothorax, number of patients",[3],1
same,"Immune Thrombocytopenic Purpura, % of patients",[3],(0.0%)
same,"Immune Thrombocytopenic Purpura, number of patients",[3],0
same,"Intra-Abdominal Hemorrhage, % of patients",[3],(0.0%)
same,"Intra-Abdominal Hemorrhage, number of patients",[3],1
same,"Intracranial Hemorrhage, % of patients",[3],(0.0%)
same,"Intracranial Hemorrhage, number of patients",[3],0
same,"Large Intestinal Hemorrhage, % of patients",[3],(0.0%)
same,"Large Intestinal Hemorrhage, number of patients",[3],1
same,"Lower Gastrointestinal Hemorrhage, % of patients",[3],(0.1%)
same,"Lower Gastrointestinal Hemorrhage, number of patients",[3],5
same,"Mallory-Weiss Syndrome, % of patients",[3],(0.0%)
same,"Mallory-Weiss Syndrome, number of patients",[3],1
same,"Melaena, % of patients",[3],(0.1%)
same,"Melaena, number of patients",[3],3
same,"Menorrhagia, % of patients",[3],(0.0%)
same,"Menorrhagia, number of patients",[3],1
same,"Mouth Hemorrhage, % of patients",[3],(0.0%)
same,"Mouth Hemorrhage, number of patients",[3],0
same,"Pancreatitis Hemorrhagic, % of patients",[3],(0.0%)
same,"Pancreatitis Hemorrhagic, number of patients",[3],1
same,"Peptic Ulcer Hemorrhage, % of patients",[3],(0.0%)
same,"Peptic Ulcer Hemorrhage, number of patients",[3],1
same,"Pericardial Hemorrhage, % of patients",[3],(0.0%)
same,"Pericardial Hemorrhage, number of patients",[3],0
same,"Post Procedural Hematoma, % of patients",[3],(0.0%)
same,"Post Procedural Hematoma, number of patients",[3],1
same,"Post Procedural Hematuria, % of patients",[3],(0.0%)
same,"Post Procedural Hematuria, number of patients",[3],0
same,"Post Procedural Hemorrhage, % of patients",[3],(0.1%)
same,"Post Procedural Hemorrhage, number of patients",[3],5
same,"Rectal Hemorrhage, % of patients",[3],(0.2%)
same,"Rectal Hemorrhage, number of patients",[3],10
same,"Renal Hemorrhage, % of patients",[3],(0.0%)
same,"Renal Hemorrhage, number of patients",[3],0
same,"Retinal Hemorrhage, % of patients",[3],(0.0%)
same,"Retinal Hemorrhage, number of patients",[3],1
same,"Retroperitoneal Hematoma, % of patients",[3],(0.0%)
same,"Retroperitoneal Hematoma, number of patients",[3],0
same,"Retroperitoneal Hemorrhage, % of patients",[3],(0.0%)
same,"Retroperitoneal Hemorrhage, number of patients",[3],1
same,"Shock Hemorrhagic, % of patients",[3],(0.0%)
same,"Shock Hemorrhagic, number of patients",[3],2
same,"Subarachnoid Hemorrhage, % of patients",[3],(0.0%)
same,"Subarachnoid Hemorrhage, number of patients",[3],2
same,"Subdural Hematoma, % of patients",[3],(0.2%)
same,"Subdural Hematoma, number of patients",[3],9
same,"Subdural Hemorrhage, % of patients",[3],(0.0%)
same,"Subdural Hemorrhage, number of patients",[3],2
same,"Traumatic Hematoma, % of patients",[3],(0.0%)
same,"Traumatic Hematoma, number of patients",[3],2
same,"Traumatic Intracranial Hemorrhage, % of patients",[3],(0.0%)
same,"Traumatic Intracranial Hemorrhage, number of patients",[3],0
same,"Ulcer Hemorrhage, % of patients",[3],(0.0%)
same,"Ulcer Hemorrhage, number of patients",[3],1
same,"Upper Gastrointestinal Hemorrhage, % of patients",[3],(0.1%)
same,"Upper Gastrointestinal Hemorrhage, number of patients",[3],3
same,"Urinary Bladder Hemorrhage, % of patients",[3],(0.0%)
same,"Urinary Bladder Hemorrhage, number of patients",[3],1
same,"Bleeding related disorders, % of patients",[4],(2.7%)
same,"Bleeding related disorders, number of patients",[4],111
same,"Central nervous system bleeding, % of patients",[4],(0.3%)
same,"Central nervous system bleeding, number of patients",[4],14
same,"Gastrointestinal bleeding, % of patients",[4],(1.5%)
same,"Gastrointestinal bleeding, number of patients",[4],62
same,"Other bleeding, % of patients",[4],(1.0%)
same,"Other bleeding, number of patients",[4],41
